Results from patent US6914045B2, “Glycopeptide antibiotics” (Wyeth Holdings Corporation, priority 2001, dated 2005).
Converted amounts (≈) assume the structure as drawn.

What was measured:
Test in all cases: in vitro antibacterial evaluation, MIC by broth dilution
Format in all cases: cell-based
Escherichia coli = details: 18 hours at 35° C.
Streptococcus sp. = details: broth dilution, 18 hours at 35° C.
Description: (§1) Methods for in vitro Antibacterial Evaluation (Table 1)
(§2) The minimum inhibitory concentration (MIC), the lowest concentration of the antibiotic which inhibits growth of the test organism, is determined by the broth dilution method using Muller-Hinton II […] (Baltimore Biological Laboratories) following the recommendations of the National Committee for Clinical Laboratory Standards [Methods for dilution antimicrobial susceptibility tests for bacteria that grow aerobically, approved standard M7-A2, National Committee for Clinical Laboratory Standards, Villanova, Pa.].
(§3) An inoculum level of 5×10^5 CFU/mL, and a range of antibiotic concentrations (64-0.06 μg/mL) is used. […] The test organisms include a spectrum of Gram-positive bacteria comprised of Staphylococcus sp., Streptococcus sp. and Enterococcus sp. These organisms include recent clinical isolates that are resistant to methicillin, penicillin and/or vancomycin.

Enterococcus sp. = details: broth dilution, 18 hours at 35° C.
Description: as §1, §2, §3

Staphylococcus sp. = details: broth dilution, 18 hours at 35° C.; for MIC Staphylococcus aureus (GC 1131): strain GC 1131
Description: as §1, §2, §3

Compound: COc1ccc2cc(C3OCC4OC(OC5C(CO)OC(Oc6ccc(CC7NC(=O)C(C(C)c8ccccc8)NC(=O)CNC(=O)C(CO)NC(=O)C(CC8CNC(=N)N8C8OC(CO)C(O)C(O)C8O)NC(=O)C(CC8CNC(=N)N8)NC7=O)cc6)C(O)C5O)C(O)C(O)C4O3)ccc2c1 (centres unmarked) [Example 190]
- MIC Escherichia coli (ATCC 25922) (Escherichia coli): >64 µg/mL
- MIC Escherichia coli (GC 4559) (Escherichia coli): >64 µg/mL
- MIC Escherichia coli (GC 4560) (Escherichia coli): 16 µg/mL (≈ 11.2 µM)
- MIC Streptococcus agalactiae (GC 4564) (Streptococcus sp.): 16 µg/mL (≈ 11.2 µM)
- MIC Streptococcus pneumoniae (ATCC 6301) (Streptococcus sp.): 8 µg/mL (≈ 5.59 µM)
- MIC Streptococcus pneumoniae (GC 1894) (Streptococcus sp.): 4 µg/mL (≈ 2.79 µM)
- MIC Streptococcus pneumoniae (GC 4565) (Streptococcus sp.): 8 µg/mL (≈ 5.59 µM)
- MIC Streptococcus pyogenes (GC 4563) (Streptococcus sp.): 16 µg/mL (≈ 11.2 µM)
- MIC Streptococcus pneumoniae (ATCC 6301) (Streptococcus sp.; inoculum 5×10^5 CFU/mL, strain ATCC 6301): 8 µg/mL (≈ 5.59 µM)
- MIC Streptococcus pneumoniae (GC 1894) (Streptococcus sp.; inoculum 5×10^5 CFU/mL, strain GC 1894): 4 µg/mL (≈ 2.79 µM)
- MIC Streptococcus pyogenes (GC 4563) (Streptococcus sp.; inoculum 5×10^5 CFU/mL, strain GC 4563): 16 µg/mL (≈ 11.2 µM)
- MIC Streptococcus agalactiae (GC 4564) (Streptococcus sp.; inoculum 5×10^5 CFU/mL, strain GC 4564): 16 µg/mL (≈ 11.2 µM)
- MIC Streptococcus pneumoniae (GC 4565) (Streptococcus sp.; inoculum 5×10^5 CFU/mL, strain GC 4565): 8 µg/mL (≈ 5.59 µM)
- MIC Enterococcus avium (GC 4558) (Enterococcus sp.): 16 µg/mL (≈ 11.2 µM)
- MIC Enterococcus faecalis (ATCC 29212) (Enterococcus sp.): 32 µg/mL (≈ 22.4 µM)
- MIC Enterococcus faecalis (GC 2242) (Enterococcus sp.): 32 µg/mL (≈ 22.4 µM)
- MIC Enterococcus faecalis (GC 2691) (Enterococcus sp.): 32 µg/mL (≈ 22.4 µM)
- MIC Enterococcus faecalis (GC 3059) (Enterococcus sp.): 32 µg/mL (≈ 22.4 µM)
- MIC Enterococcus faecalis (GC 4552) (Enterococcus sp.): 32 µg/mL (≈ 22.4 µM)
- MIC Enterococcus faecalis (GC 4553) (Enterococcus sp.): 32 µg/mL (≈ 22.4 µM)
- MIC Enterococcus faecalis (GC 4554) (Enterococcus sp.): 32 µg/mL (≈ 22.4 µM)
- MIC Enterococcus faecalis (GC 6189) (Enterococcus sp.): 32 µg/mL (≈ 22.4 µM)
- MIC Enterococcus faecium (GC 2243) (Enterococcus sp.): 32 µg/mL (≈ 22.4 µM)
- MIC Enterococcus faecium (GC 4556) (Enterococcus sp.): 32 µg/mL (≈ 22.4 µM)
- MIC Enterococcus faecium (GC 4557) (Enterococcus sp.): 8 µg/mL (≈ 5.59 µM)
- MIC Enterococcus faecalis (ATCC 29212) (Enterococcus sp.; inoculum 5×10^5 CFU/mL, strain ATCC 29212): 32 µg/mL (≈ 22.4 µM)
- MIC Enterococcus faecalis (GC 2242) (Enterococcus sp.; inoculum 5×10^5 CFU/mL, strain GC 2242): 32 µg/mL (≈ 22.4 µM)
- MIC Enterococcus faecium (GC 2243) (Enterococcus sp.; inoculum 5×10^5 CFU/mL, strain GC 2243): 32 µg/mL (≈ 22.4 µM)
- MIC Enterococcus faecalis (GC 2691) (Enterococcus sp.; inoculum 5×10^5 CFU/mL, strain GC 2691): 32 µg/mL (≈ 22.4 µM)
- MIC Enterococcus faecalis (GC 3059) (Enterococcus sp.; inoculum 5×10^5 CFU/mL, strain GC 3059): 32 µg/mL (≈ 22.4 µM)
- MIC Enterococcus faecalis (GC 4552) (Enterococcus sp.; inoculum 5×10^5 CFU/mL, strain GC 4552): 32 µg/mL (≈ 22.4 µM)
- MIC Enterococcus faecalis (GC 4553) (Enterococcus sp.; inoculum 5×10^5 CFU/mL, strain GC 4553): 32 µg/mL (≈ 22.4 µM)
- MIC Enterococcus faecalis (GC 4554) (Enterococcus sp.; inoculum 5×10^5 CFU/mL, strain GC 4554): 32 µg/mL (≈ 22.4 µM)
- MIC Enterococcus faecium (GC 4556) (Enterococcus sp.; inoculum 5×10^5 CFU/mL, strain GC 4556): 32 µg/mL (≈ 22.4 µM)
- MIC Enterococcus faecium (GC 4557) (Enterococcus sp.; inoculum 5×10^5 CFU/mL, strain GC 4557): 8 µg/mL (≈ 5.59 µM)
- MIC Enterococcus avium (GC 4558) (Enterococcus sp.; inoculum 5×10^5 CFU/mL, strain GC 4558): 16 µg/mL (≈ 11.2 µM)
- MIC Enterococcus faecalis (GC 6189) (Enterococcus sp.; inoculum 5×10^5 CFU/mL, strain GC 6189): 32 µg/mL (≈ 22.4 µM)
- MIC Staphylococcus aureus (GC 1131) (Staphylococcus sp.; inoculum 5×10^5 CFU/mL): 16 µg/mL (≈ 11.2 µM)
- MIC Staphylococcus aureus (ATCC 29213) (Staphylococcus sp.; strain ATCC 29213): 16 µg/mL (≈ 11.2 µM)
- MIC Staphylococcus aureus (GC 1131) (Staphylococcus sp.): 16 µg/mL (≈ 11.2 µM)
- MIC Staphylococcus aureus (GC 3051) (Staphylococcus sp.; strain GC 3051): 16 µg/mL (≈ 11.2 µM)
- MIC Staphylococcus aureus (GC 3053) (Staphylococcus sp.; strain GC 3053): 16 µg/mL (≈ 11.2 µM)
- MIC Staphylococcus aureus (GC 4541) (Staphylococcus sp.; strain GC 4541): 8 µg/mL (≈ 5.59 µM)
- MIC Staphylococcus aureus (GC 4542) (Staphylococcus sp.; strain GC 4542): 4 µg/mL (≈ 2.79 µM)
- MIC Staphylococcus aureus-SMITH (GC 4543) (Staphylococcus sp.; strain GC 4543): 4 µg/mL (≈ 2.79 µM)
- MIC Staphylococcus aureus (GC 4544) (Staphylococcus sp.; strain GC 4544): 16 µg/mL (≈ 11.2 µM)
- MIC Staphylococcus aureus (GC 4545) (Staphylococcus sp.; strain GC 4545): 16 µg/mL (≈ 11.2 µM)
- MIC Staphylococcus haemolyticus (GC 4546) (Staphylococcus sp.; strain GC 4546): 8 µg/mL (≈ 5.59 µM)
- MIC Coagulase Negative Staphylococcus (GC 4547) (Staphylococcus sp.; strain GC 4547): 8 µg/mL (≈ 5.59 µM)
- MIC Coagulase Negative Staphylococcus (GC 4548) (Staphylococcus sp.; strain GC 4548): 8 µg/mL (≈ 5.59 µM)
- MIC Coagulase Negative Staphylococcus (GC 4549) (Staphylococcus sp.; strain GC 4549): 8 µg/mL (≈ 5.59 µM)
- MIC Coagulase Negative Staphylococcus (GC 4551) (Staphylococcus sp.; strain GC 4551): 16 µg/mL (≈ 11.2 µM)
- MIC Coagulase Negative Staphylococcus (GC 6257) (Staphylococcus sp.; strain GC 6257): 8 µg/mL (≈ 5.59 µM)
